Measured values from patent EP4722212A1, “NOVEL COMPOUND FOR INHIBITING PROTEIN KINASES AND PHARMACEUTICAL COMPOSITION COMPRISING SAME” (Magicbullettherapeutics Co., Ltd., priority 2023, dated 2024).

Legend:
[1] = target: T1, ACK1 (Homo sapiens, UniProt Q07912); test: Enzyme activity inhibition (Reaction Biology); type: biochemical
T1 construct: purchased Reaction Biology (RBC)
Protocol: (§1) [* <10 nM: A, <100 nM: B, >100 nM: C]. [Table 7]

[2] = target: T2, BMX (Homo sapiens, UniProt P51813); test: Enzyme activity inhibition (Reaction Biology); type: biochemical
T2 construct: purchased Reaction Biology (RBC)
T2 sequence (P51813 1-675): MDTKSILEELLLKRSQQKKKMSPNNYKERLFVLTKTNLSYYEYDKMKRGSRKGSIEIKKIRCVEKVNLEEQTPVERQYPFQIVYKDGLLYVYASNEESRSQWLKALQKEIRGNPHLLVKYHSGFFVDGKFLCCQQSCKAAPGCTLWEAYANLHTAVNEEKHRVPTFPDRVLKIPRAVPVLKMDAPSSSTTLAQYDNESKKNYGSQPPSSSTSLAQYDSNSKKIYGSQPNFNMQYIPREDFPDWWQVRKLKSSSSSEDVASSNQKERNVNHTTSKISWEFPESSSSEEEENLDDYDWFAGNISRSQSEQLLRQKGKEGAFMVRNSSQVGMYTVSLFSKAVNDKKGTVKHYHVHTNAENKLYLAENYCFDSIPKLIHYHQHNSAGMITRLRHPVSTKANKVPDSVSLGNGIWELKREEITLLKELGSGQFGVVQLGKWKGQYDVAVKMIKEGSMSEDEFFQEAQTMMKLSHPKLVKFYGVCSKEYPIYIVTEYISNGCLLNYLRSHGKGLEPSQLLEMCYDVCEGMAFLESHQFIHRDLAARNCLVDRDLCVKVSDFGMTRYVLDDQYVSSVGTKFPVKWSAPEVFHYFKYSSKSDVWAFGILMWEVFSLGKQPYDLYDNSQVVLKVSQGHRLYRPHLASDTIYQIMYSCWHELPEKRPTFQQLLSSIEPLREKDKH
Protocol: as §1

[3] = target: T3, Src (Homo sapiens, UniProt P12931); test: Enzyme activity inhibition (Reaction Biology); type: biochemical
T3 construct: purchased Reaction Biology (RBC)
Protocol: as §1

[4] = test system: 22Rv1; test: Cell line inhibition analysis (CCK-8, 72 h); type: cell-based; settings: Homo sapiens; 22Rv1, 72 hours; read-out: Cell growth inhibition GI50 22Rv1
Protocol: (§2) C4-2B and 22Rv1 cells were purchased from ATCC and cultured according to the manufacturer's instructions. The cells were seeded in 96-well plates at 7×10^3cells/100 µl/well and allowed to attach for one day. After removing the culture medium, 90 µl/well of fresh culture medium was added, followed by addition of 10 µl/well of culture medium containing compounds at nine concentrations (0.076-500 µM) serially diluted 3-fold and DMSO control to achieve final concentrations of 0-50 µM, and then cultured for 72 hours in a 37 °C CO2 incubator. Cell proliferation after 72 hours was assessed by adding 10 µl/well of CCK-8 solution, orbital shaking for 30 seconds, then incubating at 37 °C CO2 incubator for 2 hours and measuring absorbance at 450 nm using a microplate reader. The measured absorbance values were corrected by subtracting the absorbance of wells containing only culture medium and CCK-8 solution, and GI50 values were calculated using GraphPad Prism 8 software.
(§3) Meanwhile, in a separate 96-well plate, cells were seeded at 7 × 10^3 cells/100 µl/well, allowed to attach for one day, CCK-8 solution was added, and absorbance was measured to establish the 'Growth (%) = 0' value.

[5] = test system: C4-2B; test: Cell line inhibition analysis (CCK-8, 72 h); type: cell-based; settings: read-out: Cell growth inhibition GI50 C4-2B
Protocol: as §2, §3

[6] = test system: AsPC-1; test: Cell line inhibition analysis (CCK-8, 72 h); type: cell-based; settings: Homo sapiens, ASPC1; read-out: Cell growth inhibition GI50 AsPC-1
Protocol: as §2, §3
(§4) Furthermore, experiments were conducted on A172, A549, HCI-H460, AsPC-1, MIA-Paca-2, DLD-1, HCT-116, HT-29, SW480, SW620, MDA-MB-231, and SKOV3 cell lines using the same method, with results shown in Tables 9 and 10 below [* <1 µM: A, <5 µM: B, <10 µM: C, >10 µM: D].

[7] = test system: HCT-116; test: Cell line inhibition analysis (CCK-8, 72 h); type: cell-based; settings: Homo sapiens, read-out: Cell growth inhibition GI50 HCT-116
Protocol: as §2, §3, §4

[8] = test system: SW480; test: Cell line inhibition analysis (CCK-8, 72 h); type: cell-based; settings: Homo sapiens, read-out: Cell growth inhibition GI50 SW480
Protocol: as §2, §3, §4

[9] = test system: SW620; test: Cell line inhibition analysis (CCK-8, 72 h); type: cell-based; settings: Homo sapiens, SW-620; read-out: Cell growth inhibition GI50 SW620
Protocol: as §2, §3, §4

T3 sequence (P12931 whole entry): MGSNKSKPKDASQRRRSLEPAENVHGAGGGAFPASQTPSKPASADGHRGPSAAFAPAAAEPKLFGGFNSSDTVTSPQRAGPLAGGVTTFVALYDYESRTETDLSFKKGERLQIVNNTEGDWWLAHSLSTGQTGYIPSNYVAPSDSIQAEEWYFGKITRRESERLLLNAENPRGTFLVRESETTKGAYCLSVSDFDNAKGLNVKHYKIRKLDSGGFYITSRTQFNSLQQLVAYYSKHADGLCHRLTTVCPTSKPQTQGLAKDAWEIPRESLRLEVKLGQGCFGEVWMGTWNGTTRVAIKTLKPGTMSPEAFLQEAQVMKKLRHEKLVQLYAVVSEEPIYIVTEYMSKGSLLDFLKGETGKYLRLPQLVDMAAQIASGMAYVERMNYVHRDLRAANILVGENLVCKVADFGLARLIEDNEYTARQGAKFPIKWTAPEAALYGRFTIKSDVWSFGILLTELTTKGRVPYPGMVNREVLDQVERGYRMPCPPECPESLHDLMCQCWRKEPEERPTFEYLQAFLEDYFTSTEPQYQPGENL
T1 sequence (Q07912 whole entry): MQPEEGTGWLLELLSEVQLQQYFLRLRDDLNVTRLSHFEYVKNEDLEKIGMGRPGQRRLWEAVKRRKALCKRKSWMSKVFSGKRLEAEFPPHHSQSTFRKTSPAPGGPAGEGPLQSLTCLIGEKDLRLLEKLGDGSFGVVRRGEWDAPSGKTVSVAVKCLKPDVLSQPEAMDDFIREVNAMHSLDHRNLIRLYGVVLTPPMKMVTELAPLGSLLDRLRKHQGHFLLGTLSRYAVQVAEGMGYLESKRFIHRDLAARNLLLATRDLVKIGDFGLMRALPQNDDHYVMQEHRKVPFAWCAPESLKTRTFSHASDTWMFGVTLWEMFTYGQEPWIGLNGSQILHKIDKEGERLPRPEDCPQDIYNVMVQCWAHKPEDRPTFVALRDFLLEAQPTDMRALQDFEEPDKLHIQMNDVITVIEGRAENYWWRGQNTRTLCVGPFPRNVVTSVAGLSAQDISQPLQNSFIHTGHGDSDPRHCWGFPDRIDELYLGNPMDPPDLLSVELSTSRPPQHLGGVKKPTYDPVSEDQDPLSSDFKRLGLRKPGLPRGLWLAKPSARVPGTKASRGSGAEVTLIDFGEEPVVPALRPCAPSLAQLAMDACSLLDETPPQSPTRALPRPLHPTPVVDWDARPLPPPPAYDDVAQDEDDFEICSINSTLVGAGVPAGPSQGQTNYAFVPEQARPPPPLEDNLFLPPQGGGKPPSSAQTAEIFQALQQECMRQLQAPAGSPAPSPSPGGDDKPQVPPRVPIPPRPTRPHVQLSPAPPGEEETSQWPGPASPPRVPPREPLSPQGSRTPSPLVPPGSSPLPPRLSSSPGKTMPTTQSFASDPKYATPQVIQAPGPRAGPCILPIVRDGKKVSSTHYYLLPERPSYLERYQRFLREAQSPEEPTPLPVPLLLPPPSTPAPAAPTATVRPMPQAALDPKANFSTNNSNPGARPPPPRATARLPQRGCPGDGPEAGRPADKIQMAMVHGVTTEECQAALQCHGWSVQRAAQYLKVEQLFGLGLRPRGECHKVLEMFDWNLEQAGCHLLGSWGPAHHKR

IC50 [1] | IC50 [2] | IC50 [3] | GI50 [4] | GI50 [6] | GI50 [7] | GI50 [8] | GI50 [9] | Compound | GI50 [5]
< 0.01 µM | < 0.01 µM | < 0.01 µM |  |  |  |  |  | Cc1cc(Nc2ncc3c(n2)C2(CC2)C(=O)N(c2cc(NC(=O)c4cccc(C(F)(F)F)c4)ccc2C)C3)n(C)n1 [Compound 1, N-(3-(2'-((1,3-dimethyl-1H-pyrazol-5-yl)amino)-7'-oxo-5'H-spiro[cyclopropane-1,8'-pyrido[4,3-d]pyrimidin]-6'(7'H)-yl)-4-methylphenyl)-3-(trifluoromethyl)benzamide] | 1 to 5 µM
 |  |  |  | < 1 µM | < 1 µM |  |  | Cc1ccc(NC(=O)c2cccc(C(F)(F)F)c2)cc1N1Cc2cnc(Nc3ccc(CN4CCN(C)CC4)cc3)nc2C2(CC2)C1=O [Compound 43, N-(4-methyl-3-(2'-((4-((4-methylpiperazin-1-yl)methyl)phenyl)amino)-7'-oxo-5'H-spiro[cyclopropane-1,8'-pyrido[4,3-d]pyrimidine]-6'(7'H)-yl)phenyl)-3-(trifluoromethyl)benzamide] | 
0.01 to 0.1 µM | > 0.1 µM | > 0.1 µM |  |  |  |  |  | Cc1ccc(NC(=O)c2cc(C(F)(F)F)ccc2Cl)cc1N1Cc2cnc(N)nc2C2(CC2)C1=O [Compound 25, N-(3-(2'-amino-7'-oxo-5'H-spiro[cyclopropane-1,8'-pyrido[4,3-d]pyrimidine]-6'(7'H)-yl)-4-methylphenyl)-2-chloro-5-(trifluoromethyl)benzamide] | > 10 µM
0.01 to 0.1 µM | < 0.01 µM | > 0.1 µM |  | 5 to 10 µM | < 1 µM | 1 to 5 µM | 1 to 5 µM | Cc1ccc(NC(=O)c2cc(N3CCOCC3)cc(C(F)(F)F)c2)cc1N1Cc2cnc(NC3CC3)nc2C2(CC2)C1=O [Compound 28, N-(3-(2'-(cyclopropylamino)-7'-oxo-5'H-spiro[cyclopropane-1,8'-pyrido[4,3-d]pyrimidine]-6'(7'H)-yl)-4-methylphenyl)-3-morpholino-5-(trifluoromethyl)benzamide] | 1 to 5 µM
0.01 to 0.1 µM | < 0.01 µM | < 0.01 µM |  |  |  |  |  | Cc1ccc(NC(=O)c2cc(N3CCOCC3)cc(C(F)(F)F)c2)cc1N1Cc2cnc(N)nc2C2(CC2)C1=O [Compound 29, N-(3-(2'-amino-7'-oxo-5'H-spiro[cyclopropane-1,8'-pyrido[4,3-d]pyrimidine]-6'(7'H)-yl)-4-methylphenyl)-3-morpholino-5-(trifluoromethyl)benzamide] | 1 to 5 µM
0.01 to 0.1 µM | 0.01 to 0.1 µM | 0.01 to 0.1 µM |  |  |  |  |  | COc1ccc(-c2cc(C(=O)Nc3ccc(C)c(N4Cc5cnc(N)nc5C5(CC5)C4=O)c3)cc(C(F)(F)F)c2)cc1 [Compound 20, N-(3-(2'-amino-7'-oxo-5'H-spiro[cyclopropane-1,8'-pyrido[4,3-d]pyrimidine]-6'(7'H)-yl)-4-methylphenyl)-4'-methoxy-5-(trifluoromethyl)-[1,1'-biphenyl]-3-carboxamide] | < 1 µM
 |  |  |  | < 1 µM | < 1 µM | < 1 µM | < 1 µM | Cc1ccc(NC(=O)c2cccc(C(F)(F)F)c2)cc1N1Cc2cnc(Nc3ccc(N4CCN(C)CC4)cc3)nc2C2(CC2)C1=O [Compound 38, N-(4-methyl-3-(2'-((4-(4-methylpiperazin-1-yl)phenyl)amino)-7'-oxo-5'H-spiro[cyclopropane-1,8'-pyrido[4,3-d]pyrimidine]-6'(7'H)-yl)phenyl)-3-(trifluoromethyl)benzamide] | 
0.01 to 0.1 µM |  |  |  |  |  |  |  | Cc1ccc(NC(=O)c2cccc(C(F)(F)F)c2)cc1N1Cc2cnc(NO)nc2C2(CC2)C1=O [Compound 70, N-(3-(2'-(hydroxyamino)-7'-oxo-5'H-spiro[cyclopropane-1,8'-pyrido[4,3-d]pyrimidine]-6'(7'H)-yl)-4-methylphenyl)-3-(trifluoromethyl)benzamide] | 

Further lines, the compound ahead of its results:

Compound | IC50 [1] | IC50 [2] | IC50 [3] | GI50 [4] | GI50 [6] | GI50 [7] | GI50 [8] | GI50 [9] | GI50 [5]
Cc1ccc(NC(=O)c2cc(Cl)cc(C(F)(F)F)c2)cc1N1Cc2cnc(N)nc2C2(CC2)C1=O [Compound 26, N-(3-(2'-amino-7'-oxo-5'H-spiro[cyclopropane-1,8'-pyrido[4,3-d]pyrimidine]-6'(7'H)-yl)-4-methylphenyl)-3-chloro-5-(trifluoromethyl)benzamide] | 0.01 to 0.1 µM | < 0.01 µM | < 0.01 µM | < 1 µM |  |  |  |  | < 1 µM
Cc1ccc(NC(=O)c2ccc(Cl)c(C(F)(F)F)c2)cc1N1Cc2cnc(N)nc2C2(CC2)C1=O [Compound 5, N-(3-(2'-amino-7'-oxo-5'H-spiro[cyclopropane-1,8'-pyrido[4,3-d]pyrimidine]-6'(7'H)-yl)-4-methylphenyl)-4-chloro-3-(trifluoromethyl)benzamide] |  |  |  | 1 to 5 µM |  |  |  |  | 1 to 5 µM
COCCN(C)c1cc(C(=O)Nc2ccc(C)c(N3Cc4cnc(N)nc4C4(CC4)C3=O)c2)cc(C(F)(F)F)c1 [Compound 31, N-(3-(2'-amino-7'-oxo-5'H-spiro[cyclopropane-1,8'-pyrido[4,3-d]pyrimidine]-6'(7'H)-yl)-4-methylphenyl)-3-((2-methoxyethyl)(methyl)amino)-5-(trifluoromethyl)benzamide] | 0.01 to 0.1 µM | < 0.01 µM | 0.01 to 0.1 µM |  |  |  |  |  | 1 to 5 µM
Cc1ccc(NC(=O)c2ccc(F)c(C(F)(F)F)c2)cc1N1Cc2cnc(N)nc2C2(CC2)C1=O [Compound 4, N-(3-(2'-amino-7'-oxo-5'H-spiro[cyclopropane-1,8'-pyrido[4,3-d]pyrimidine]-6'(7'H)-yl)-4-methylphenyl)-4-fluoro-3-(trifluoromethyl)benzamide] |  |  |  | 1 to 5 µM |  |  |  |  | 1 to 5 µM
COc1cc(C(=O)Nc2ccc(C)c(N3Cc4cnc(N)nc4C4(CC4)C3=O)c2)cc(C(F)(F)F)c1 [Compound 19, N-(3-(2'-amino-7'-oxo-5'H-spiro[cyclopropane-1,8'-pyrido[4,3-d]pyrimidine]-6'(7'H)-yl)-4-methylphenyl)-3-methoxy-5-(trifluoromethyl)benzamide] | < 0.01 µM | < 0.01 µM | < 0.01 µM | 1 to 5 µM |  |  |  |  | 1 to 5 µM
Cc1cn(-c2cc(C(=O)Nc3ccc(C)c(N4Cc5cnc(N)nc5C5(CC5)C4=O)c3)cc(C(F)(F)F)c2)cn1 [Compound 6, N-(3-(2'-amino-7'-oxo-5'H-spiro[cyclopropane-1,8'-pyrido[4,3-d]pyrimidine]-6'(7'H)-yl)-4-methylphenyl)-3-(4-methyl-1H-imidazol-1-yl)-5-(trifluoromethyl)benzamide] | < 0.01 µM | < 0.01 µM | < 0.01 µM | < 1 µM |  |  |  |  | 1 to 5 µM
Cc1ccc(NC(=O)c2ccnc(C(F)(F)F)c2)cc1N1Cc2cnc(N)nc2C2(CC2)C1=O [Compound 22, N-(3-(2'-amino-7'-oxo-5'H-spiro[cyclopropane-1,8'-pyrido[4,3-d]pyrimidine]-6'(7'H)-yl)-4-methylphenyl)-2-(trifluoromethyl)isonicotinamide] |  |  |  |  |  |  |  |  | > 10 µM
